Assay results taken from patent EP0831877B1, “METABOLIC EFFECTS OF CERTAIN GLUTATHIONE ANALOGS” (TELIK, INC., priority 1995, dated 1996).
Values joined by “and” are separate entries in the source; they are usually repeats but may differ in a detail not shown here. Equal values may be shown once. Marks after values point to notes of the source that are not given here.

What was measured:
[1] = tested on: VLB, a vinblastine-resistant variant of SKOV-3; assay: standard clonogenic assay, potentiation of drug toxicity, VLB; assay type: cell-based
Procedure: (§1) ; SKOV-3 an ovarian carcinoma, and VLB, a vinblastine-resistant variant of SKOV-3. Four chemotherapeutic drugs, chlorambucil, adriamycin, mitomycin C and doxorubicin were used as the toxic agents. In these assays, the cells were seeded at 300 cells/well in 2 ml of medium in 6-well plates in the presence of the compounds used in the invention as the diethyl esters. […]. After incubation for 1-2 hours to permit cells to attach, varying doses of the chemotherapeutic agents were added. At least three replicate wells were plated for each test condition and the plates were incubated for two weeks. Colonies were fixed in 95% ethanol and stained with crystal violet for colony counting. IC50 values were determined for the chemotherapeutic agent in the presence or absence of the compound used in the invention and dose modification factors were calculated by dividing the IC50 value of drug without the compound by the IC50 value of the drug with the compound.

[2] = tested on: normal BDF1 mouse bone marrow erythroid (BFU-E) progenitor cells; assay: colony formation, mouse bone marrow BFU-E; assay type: cell-based
Procedure: (§2) The effects are dose-dependent, usually in the range of 1.0 to 10.0 µM, and in most cases for cells stimulated by GM-CSF, G-CSF, M-CSF, Flt3/Flk-2 and Steel factor (stem cell factor/c-kit ligand). Of particular interest was the finding that TER199 enhances colony formation stimulated by combinations of cytokines. Additionally, the enhancing effect is more pronounced in human than in murine bone marrow.

[3] = tested on: SKOV-3 an ovarian carcinoma; assay: standard clonogenic assay, potentiation of drug toxicity, SKOV-3; assay type: cell-based; settings: test dose not given
Procedure: as §1

[4] = tested on: normal human bone marrow erythroid (BFU-E) progenitor cells; assay: colony formation, human bone marrow BFU-E; assay type: cell-based
Procedure: as §2

bone marrow GM-CFU [5] = assay: carboplatin-induced GM-CFU suppression in mice; assay type: in vivo; settings: TER199 120mg/kg, i.p., carboplatin 90 mg/kg
Procedure: Bone marrows were harvested 24 hours after administration of the second drug.

peripheral blood cells [6] = assay: effect on peripheral blood counts in rats; settings: 90 mg/kg/day x 5, i.p.
Source text: Rats were divided into two groups and each group was bled on alternating days. Mean total leukocyte, absolute lymphocyte and absolute neutrophil counts increased over the study period.

[7] = tested on: normal BDF1 mouse bone marrow multipotential (CFU-GEMM) progenitor cells; assay: colony formation, mouse bone marrow CFU-GEMM; assay type: cell-based; settings: EPO + 50 ng/ml SLF
Procedure: as §2

bone marrow GM-CFU [8] = settings: TER199 90 mg/kg i.p. 1 hour prior to melphalan 10 mg/kg i.p.
[9] = tested on: HT4-1, a subclone of HT-29; assay: standard clonogenic assay, potentiation of drug toxicity, HT4-1
Procedure: Four chemotherapeutic drugs, chlorambucil, adriamycin, mitomycin C and doxorubicin were used as the toxic agents. In these assays, the cells were seeded at 300 cells/well in 2 ml of medium in 6-well plates in the presence of the compounds used in the invention as the diethyl esters. […] After incubation for 1-2 hours to permit cells to attach, varying doses of the chemotherapeutic agents were added. At least three replicate wells were plated for each test condition and the plates were incubated for two weeks. […] IC50 values were determined for the chemotherapeutic agent in the presence or absence of the compound used in the invention and dose modification factors were calculated by dividing the IC50 value of drug without the compound by the IC50 value of the drug with the compound.

[10] = in vitro half-life / metabolism in mouse blood; assay type: in vitro ADME
peripheral blood cells [11] = assay: peripheral blood response to 5-FU with i.p. TER199 in rats; assay type: in vivo, Sprague-Dawley derived rats; settings: 5-FU 150 mg/kg i.p. day one
Procedure: Sprague-Dawley derived rats were treated according to the schedule below (Table 11).

peripheral blood cells [12] = assay: peripheral blood response to 5-FU with oral TER199 in mice; assay type: in vivo; settings: 150 mg/kg 5-FU IP, 24 hours later oral 150 mg/kg TER199, versus 5-FU alone
Procedure: The mice were bled through the retroorbital plexus and the blood samples were analyzed for changes in blood counts.

bone marrow GM-CFU [13] = assay: cyclophosphamide-induced GM-CFU suppression in mice; assay type: in vivo
interleukin-1 (IL-1) = assay: stimulation of cytokine production in bone marrow stromal cell cultures; assay type: cell-based, human; settings: 100µM TER199 for one hour
Procedure: Human stromal cell cultures were established from freshly obtained human bone marrow as described by East, C.J. et al., Blood 5:1172 (1992). […] IL-1 levels were more than twice those of controls at both 24 and 48 hour time points.

[14] = tested on: CD34^+++ cells from human cord blood or bone marrow; assay: CD34+++ cell differentiation in the presence of cytokines; assay type: cell-based; settings: 0.1 µM-10 µM TER199, erythropoietin 1 unit/ml, IL-3 100 unit/ml
[15] = EPO + 50 ng/ml SLF, TER199 0.1 µM
[16] = EPO + 50 ng/ml SLF, TER199 1.0 µM
[17] = EPO + 50 ng/ml SLF, TER199 10 µM
[18] = HT4-1, TER199 at 25 µM, TER183 dose not given
[19] = TER199 60 mg/kg b.i.d. or 120 mg/kg q.d. i.p. day 2-10

SMILES: CCOC(=O)[C@@H](N)CCC(=O)N[C@@H](CSCc1ccccc1)C(=O)N[C@@H](C(=O)OCC)c1ccccc1 [TER199, γE ethyl ester-C(Bz)-R-(-)-ϕG ethyl ester]
- DMF for Mitomycin C ([1]; 5 µM TER199): 0.82 (5 µM TER199)^c
- DMF for Doxorubicin ([1]; TER199 at 25 µM): 2.50
- DMF for Adriamycin ([1]; TER199 at 25 µM, TER183 dose not given): 2.50
- % change from control ([2]; EPO 1 U/ml, TER199 0.1 µM): 0%
- Colony number ([2]; EPO 1 U/ml, TER199 0.1 µM): 2±1 and 4±1
- Colony number ([2]; EPO 1 U/ml, TER199 1.0 µM): 2±1 and 3±1
- % change from control ([2]; EPO 1 U/ml, TER199 10 µM): 0%
- Colony number ([2]; EPO 1 U/ml, TER199 10 µM): 2±1 and 4±1
- Colony number [2, 15]: 8±1 and 9±1
- Colony number [2, 16]: 8±1 and 9±1
- Colony number [2, 17]: 8±1 and 9±1
- DMF for Adriamycin [3]: 1.14
- DMF for Chlorambucil [3]: 1.24
- DMF for Doxorubicin [3]: 1.14
- Colony number ([4]; EPO 1 U/ml, TER199 0.1 µM): 35±3 and 38±3
- Colony number ([4]; EPO 1 U/ml, TER199 1.0 µM): 60±2 and 58±1
- Colony number ([4]; EPO 1 U/ml, TER199 10 µM): 57±4 and 59±2
- Colony number [4, 15]: 92±4 and 80±5
- % change from control [4, 16]: 22% and 35%
- Colony number [4, 16]: 107±7 and 80±3
- % change from control [4, 17]: 24% and 29%
- Colony number [4, 17]: 109±2 and 85±3
- carboplatin-induced GM-CFU suppression (Figure 12, panel A) (bone marrow GM-CFU [5]): reduces carboplatin-induced GM-CFU suppression
- deleterious effects on the animals (peripheral blood cells [6]): did not appear to have any deleterious effects
- levels of circulating white blood cells (peripheral blood cells [6]): twofold increase
- red blood cell or platelet counts (peripheral blood cells [6]; exception: mean decrease in platelet count on day 9): no significant change
- % change from control ([7]; TER199 0.1 µM): 0%
- Colony number ([7]; TER199 0.1 µM): 2±1
- % change from control ([7]; TER199 10 µM): 0%
- Colony number ([7]; TER199 10 µM): 2±1
- GM-CFU (bone marrow GM-CFU [8]): 8 % of control value
- survival of tumor cells treated with varying dosages of chlorambucil (Figure 1a) ([9]; 25 µM compound added to chlorambucil): survival rate is markedly diminished
- DMF for Doxorubicin ([9]; HT4-1, TER199 at 25 µM): 1.20
- DMF for Adriamycin [9, 18]: 1.2
- DMF for Chlorambucil [9, 18]: 2.39
- DMF for Mitomycin C [9, 18]: 1.03
- survival of HT4-1 cells in the presence of the compound alone (Figure 1b) ([9]; HT4-1 cells): clearly toxic
- half-life [10]: < 1 min
- platelet levels (Figure 14) (peripheral blood cells [11]; [19]): recovered to normal levels by study Day 12
- white blood cell, neutrophil, and lymphocyte levels (Figure 14) (peripheral blood cells [11]; [19]): reached pretest levels sooner than the 5-FU-treated group
- red blood cell counts (Figure 14) (peripheral blood cells [11]; TER199 i.p. day 2-10, compared to 5-FU control animals): observed decrease is reduced
- lymphocytes (Figure 15c) (peripheral blood cells [12]): no differences were found
- monocytes (Figure 15d) (peripheral blood cells [12]): statistically significant difference only on day 9
- neutrophils (Figure 15b) (peripheral blood cells [12]): statistically significant difference was obtained only on day 9
- total white cell counts (Figure 15a) (peripheral blood cells [12]): essentially no significant difference
- cyclophosphamide-induced GM-CFU suppression (Figure 13, panel A) (bone marrow GM-CFU [13]; TER199 120 mg/kg, i.p. 24 hours after cyclophosphamide 200 mg/kg, i.p.): reduces GM-CFU suppression
- cyclophosphamide-induced GM-CFU suppression (Figure 13, panel B) (bone marrow GM-CFU [13]; TER199 150 mg/kg, p.o.): similarly effective
- IL-1 concentration (interleukin-1 (IL-1); 24 Hours): 323 pg/mL
- IL-1 concentration (% control) (interleukin-1 (IL-1); 24 Hours): 283 % control
- IL-1 concentration (interleukin-1 (IL-1); 48 Hours): 245 pg/mL
- IL-1 concentration (% control) (interleukin-1 (IL-1); 48 Hours): 253 % control
- BFU-E (Figure 16) [14]: modest positive effects
- CFU-GEMM colony formation (Figure 16) ([14]; steel factor 50 ng/ml): modest positive effects
